From patent US9242948B2, “Diepoxy compound, process for producing same, and composition containing the diepoxy compound” (Sumitomo Chemical Company, Limited, priority 2009, dated 2016) come the findings set out here.

SMILES strings stand for the structures.

A short description of the data set: Measurement of solubility in methyl isobutyl ketone. Conditions: for Solubility: compound (g)×100/[compound (g)+methyl isobutyl ketone (g)]; for Solubility relative to that of the compound represented by the formula (A): from Table 1. The data set is classed as physicochemical. On the procedure:
<Measurement of Solubility>
by the formula (1-1) which was obtained in Example 2, the compound represented by the formula (1-2) which was obtained in Example 6, and the compound represented by the following formula (A)
[drawing 31] (compound (g)×100/[compound (g)+methyl isobutyl ketone (g)], % by weight) were measured.

Turning to `O=C(OC1CCC(c2ccc(OCC3CO3)cc2)CC1)c1ccc(OCC2CO2)cc1` (centres unmarked) [formula (1-1), 4-{4-(2,3-epoxypropoxy)phenyl}cyclohexyl 4-(2,3-epoxypropoxy)benzoate], the “Solubility relative to that of the compound represented by the formula (A)” value is on record as “more than twice as big”. Moreover, the Solubility (40° C.) came out at 2.36 % by weight. Further, for the setting “65° C.”, the Solubility is 4.16 % by weight.

Consider `Cc1cc(C(=O)OC2CCC(c3ccc(OCC4CO4)cc3)CC2)ccc1OCC1CO1` (centres unmarked) [formula (1-2), 4-{4-(2,3-epoxypropoxy)phenyl}cyclohexyl 4-(2,3-epoxypropoxy)-3-methylbenzoate], for which the “Solubility relative to that of the compound represented by the formula (A)” value is reported as “more than twice as big”. This molecule also gave a Solubility (40° C.) of 2.01 % by weight. The Solubility (65° C.) was 4.70 % by weight.

For the molecule `Cc1cc(OC(=O)c2ccc(OCC3CO3)cc2)ccc1OC(=O)c1ccc(OCC2CO2)cc1` (centres unmarked) [formula (A), reference compound], the Solubility is, setting by setting: (40° C.) 1.10 % by weight; (65° C.) 2.00 % by weight.
